Data on 6 molecules can be found in patent US7998949B2, “Bicyclic heterocycles, drugs containing said compounds, use thereof, and method for production thereof” (Boehringer Ingelheim International GmbH, priority 2007, dated 2011).

This experiment concerns the target T1, human EGF-R (Homo sapiens, UniProt P00533).
T1 construct: expressed in transfected cells
Nature of the experiment: Inhibition of the EGFR-dependent proliferation (EGF-stimulated cell line expressing human EGF-R, Cell Titer 96 assay). It counts as cell-based. Conditions: murine haematopoietic cell line expressing functional human EGF-R; 20 ng/ml human EGF; 48 hours at 37° C. The procedure: A murine haematopoietic cell line is genetically modified so as to express functional human EGF-R. The proliferation of this cell line can therefore be stimulated by EGF.
The test is carried out as follows: • The cells are cultivated in RPMI/1640 medium. The proliferation is stimulated with 20 ng/ml of human EGF (Promega). To investigate the inhibitory activity of the compounds according to the invention these compounds are dissolved in 100% dimethylsulphoxide (DMSO) and added to the cultures in various dilutions, the maximum DMSO concentration being 1%. The cultures are incubated for 48 hours at 37° C.
In order to determine the inhibitory activity of the compounds according to the invention the relative cell number is measured in O.D. units using the Cell Titer 96™ AQueous Non-Radioactive Cell Proliferation Assay (Promega). The relative cell number is calculated as a percentage of the control and the concentration of active substance which inhibits the proliferation of the cells by 50% (IC50) is derived therefrom.

T1 sequence (P00533 25-1210): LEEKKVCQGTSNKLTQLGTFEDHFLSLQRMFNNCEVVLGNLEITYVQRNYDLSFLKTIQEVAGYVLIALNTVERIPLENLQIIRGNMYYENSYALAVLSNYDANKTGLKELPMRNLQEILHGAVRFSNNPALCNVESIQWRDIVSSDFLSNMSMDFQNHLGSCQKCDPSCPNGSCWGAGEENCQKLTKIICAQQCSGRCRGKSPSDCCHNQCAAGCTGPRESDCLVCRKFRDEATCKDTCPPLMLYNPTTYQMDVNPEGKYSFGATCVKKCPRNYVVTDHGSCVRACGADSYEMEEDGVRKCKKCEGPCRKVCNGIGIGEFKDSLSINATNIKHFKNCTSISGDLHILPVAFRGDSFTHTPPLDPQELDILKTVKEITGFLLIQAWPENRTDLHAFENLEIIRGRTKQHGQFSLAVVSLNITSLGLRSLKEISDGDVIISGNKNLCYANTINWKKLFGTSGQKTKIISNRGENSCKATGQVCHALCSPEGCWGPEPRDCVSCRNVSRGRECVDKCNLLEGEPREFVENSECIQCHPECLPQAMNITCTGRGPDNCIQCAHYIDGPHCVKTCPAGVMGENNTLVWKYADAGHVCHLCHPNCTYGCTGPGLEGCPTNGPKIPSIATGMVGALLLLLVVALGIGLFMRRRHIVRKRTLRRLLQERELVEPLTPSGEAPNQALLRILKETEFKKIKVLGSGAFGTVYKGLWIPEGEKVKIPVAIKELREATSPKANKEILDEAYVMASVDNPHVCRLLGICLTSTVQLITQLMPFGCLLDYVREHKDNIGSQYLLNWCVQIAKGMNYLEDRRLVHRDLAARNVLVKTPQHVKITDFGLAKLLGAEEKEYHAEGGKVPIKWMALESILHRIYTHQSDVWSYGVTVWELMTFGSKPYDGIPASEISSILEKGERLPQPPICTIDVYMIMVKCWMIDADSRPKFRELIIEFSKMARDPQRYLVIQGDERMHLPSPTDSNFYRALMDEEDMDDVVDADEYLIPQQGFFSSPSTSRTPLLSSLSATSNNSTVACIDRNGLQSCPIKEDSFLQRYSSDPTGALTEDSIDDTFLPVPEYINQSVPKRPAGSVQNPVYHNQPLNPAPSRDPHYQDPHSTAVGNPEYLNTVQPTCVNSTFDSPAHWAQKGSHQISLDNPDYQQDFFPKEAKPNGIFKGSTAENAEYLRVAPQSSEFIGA

By IC50 is commonly meant the point on the concentration scale where inhibition reaches its midpoint. A lower IC50 goes with greater potency. With `COc1cc2ncnc(Nc3cccc(Cl)c3F)c2cc1O[C@H]1CC[C@H](N2CC[C@@H](O)C2)CC1` [1(1) (trans compound), 4-[(3-chloro-2-fluoro-phenyl)amino]-6-[(R)-trans-4-(3-hydroxy-pyrrolidin-1-yl)-cyclohexyloxy]-7-methoxy-quinazoline], the IC50 was determined as 1 nM.

In turn, `COc1cc2ncnc(Nc3cccc(Cl)c3F)c2cc1O[C@H]1CC[C@H](N2CCC[C@H]2C(N)=O)CC1` [1(5) (trans compound), 4-[(3-chloro-2-fluoro-phenyl)amino]-6-{(S)-trans-4-[2-(aminocarbonyl)-pyrrolidin-1-yl]-cyclohexyloxy]-7-methoxy-quinazoline] came in with an IC50 of 1 nM.

As for `COc1cc2ncnc(Nc3cccc(Cl)c3F)c2cc1O[C@H]1CC[C@H](N2CCOCC2)CC1` [1 (trans compound), 4-[(3-chloro-2-fluoro-phenyl)amino]-6-[trans-4-(morpholin-4-yl)-cyclohexyloxy]-7-methoxy-quinazoline], the IC50 stood at 1 nM.

Consider `COc1cc2ncnc(Nc3cccc(Cl)c3F)c2cc1O[C@H]1CC[C@H](N2CCC(C#N)CC2)CC1` [(44)], for which the IC50 was 1 nM.

On to `COc1cc2ncnc(Nc3cccc(Cl)c3F)c2cc1O[C@H]1CC[C@H](N2CCN(C)C(=O)C2)CC1` [(36)], for which the IC50 came to 1 nM.

The molecule `COc1cc2ncnc(Nc3cccc(Cl)c3F)c2cc1O[C@H]1CC[C@H](N2CCNC(=O)C2)CC1` [1(3) (trans compound), 4-[(3-chloro-2-fluoro-phenyl)amino]-6-[trans-4-(3-oxo-piperazin-1-yl)-cyclohexyloxy]-7-methoxy-quinazoline] had an IC50 of 1 nM.
